Experimental data as given in PMC10587159, “Biosynthesis and engineering of the nonribosomal peptides with a C-terminal putrescine” (Nature Communications, 2023).
Non-standard residues stand in square brackets, D forms with d. Residues, ends and D or L forms follow the SMILES beside them. *: point of attachment. Lauroyl = CCCCCCCCCCCC(=O)*; NH(CH2)4NH2 = NCCCCN*

How the values were obtained:
[1] = system: human gastric cancer cell SGC-7901; assay: cells; type: cell-based; conditions: 24 h
Method in brief: (§1)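 Cytotoxicity against the listed human lines (Kasumi leukemia, HepG-2 hepatoma, SGC-7901 gastric, normal lung epithelial 2B) measured by MTT assay following a previously described protocol. Cell identity checked regularly by morphology and gene/protein expression.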

[2] = system: human acute lymphoblastic leukemia cells K562; assay: cells; type: cell-based; conditions: 24 h
Method in brief: (§2)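 Cytotoxicity in Kasumi, HepG-2, SGC-7901 and normal lung epithelial 2B cells, among other human tumour lines, was measured by MTT assay.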

[3] = system: human breast adenocarcinoma cells MCF7; assay: cells; type: cell-based; conditions: 24 h
Method in brief: as §2

[4] = system: human hepatoma cell HepG-2; assay: cells; type: cell-based; conditions: 24 h
Method in brief: as §2

[5] = system: human colon cancer cell HCT-116; assay: cells; type: cell-based; conditions: 24 h
Method in brief: (§3)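 Compound cytotoxicity is assessed with the MTT method in human cancer cells and normal 2B lung epithelial cells.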

[6] = system: human breast adenocarcinoma cells MDA-MB-231; assay: cells; type: cell-based; conditions: 24 h
Method in brief: as §3

[7] = system: human lung epithelial normal cell 2B; assay: cells; type: cell-based; conditions: 24 h
Method in brief: as §2

[8] = system: human lung adenocarcinoma cell A549; assay: MTT cytotoxicity assay, A549; type: cell-based; conditions: 24 h
Method in brief: as §3

human cells Kasumi = assay: MTT cytotoxicity assay, Kasumi; type: cell-based; conditions: 24 h
Method in brief: as §1

HepG2 cells [9] = assay: Cell numbers of HepG2 after compound treatment; type: cell-based, human; conditions: HepG2, 1.5 × 10^5 cells/well plated, compound 5 μg/mL, 3 h; mean of n = 3
Protocol: (§4) Comparing the concentration of compounds (7, 10, 10a) in extracellular and intracellular after the HepG2 cell line dealt with compounds. HepG2 cells were plated in six-well plates at a density of 1.5 × 10^5 cells/well and grew overnight. After cell treated with compounds (5 μg/mL) for 3 h, the compounds were extracted with MeOH for cells culture medium and cells separately as followed the reported method. The compounds were quantified by LC‒MS (5%‒95% ACN in 15 min). The cell numbers of HepG2 with the compounds treatments was determined. […]
(§5) To determine whether the difference in bioactivity of products (with or without Put moiety) is due to variations in cellular uptake, we treated hepatoma cell line HepG2 with compounds 7 (C12 acyl), 10 (C14 acyl), and 10a (C14 acyl and without Put) (Supplementary Fig. 33c). The cells were treated for 3 h, and then culture medium and cells were extracted separately. LC-MS was used to detect and quantify the compounds.
(§6) At lower concentrations (5000 ng/mL, and 10,000 ng in total for each group), and […]
(§7) may be contributing to the differences in antitumor activity (Supplementary Fig. 33b).
(§8) This could be due to differences in the speed of cellu lar uptake or differences in drug metabolism rate, requiring further experimental investigation.

HepG2 cells [10] = assay: Extracellular and intracellular compound in HepG2 cells (LC-MS); type: in vitro ADME, human; conditions: 3 h
Protocol: as §4, §5, §6, §7, §8

PvdQ-like acylase GdnD = assay: Deacylation by acylase GdnD (cell lysate, LC-MS); type: biochemical, Schlegelella brevitalea DSM 7029; conditions: 100 μL E. coli cell lysate with GdnD, 5 μL 10 mM substrate, 30 °C; 7 and 8: 4 h, 16 h, 27 h; other substrates 16 h; boiled lysate as control
Protocol: The hydrolysis function of PvdQ-like acylase GdnD was tested. GdnD is predicted to be a periplasmic protein by PSORTb[13]. The collected pellet from 50 mL LB dissolved with 8 mL buffer C (50 mM Tris, 300 mM NaCl, 5 mM MgCl2, pH 7.6), and lysed by cell disruption. Then, one hundred microliter of the cell lysate was incubated with 5 μL 10 mM substrates 7 and 8 for 4 h, 16 h, and 27 h at 30 °C. The negative control was boiled cell lysate. The other substrates (13, 14, 15, 16, and 17) incubated with the cell lysate dealt for 16 h at 30 °C. Then, the reaction was stopped by the addition of the 100 μL MeOH, and the final mixture was checked by LC‒MS analysis (5%‒95% ACN in 15 min) according to the above condition.

CCCCCCCCCCCC(=O)N[C@H](CCSC)C(=O)N[C@H](CC(N)=O)C(=O)N1CCC[C@H]1C(=O)N[C@H](C(=O)N[C@H](Cc1ccccc1)C(=O)N1CCC[C@H]1C(=O)N[C@@H](Cc1c[nH]c2ccccc12)C(=O)N[C@@H](C(=O)N[C@@H](C)C(=O)N[C@H](C)C(=O)N[C@@H](CO)C(=O)N[C@@H](C)C(=O)NCCCCN)C(C)C)C(C)C [Compound 7, Glidonin G] (Lauroyl-[dM][dN]PV[dF]PW[dV]A[dA]SA-{NH(CH2)4NH2})
IC50 [1]: > 20 µM
IC50 [2]: 13.5 ± 4.44 µM
IC50 [3]: > 20 µM
IC50 [4]: 8.3 ± 0.57 µM
IC50 [5]: > 20 µM
IC50 [6]: 4.76 ± 0.79 µM
IC50 [7]: 11.7 ± 1.5 µM
IC50 [8]: 7.64 ± 1.11 µM
IC50 (human cells Kasumi): 7.93 ± 0.35 µM
The cell numbers, Average (HepG2 cells [9]): 1323333
total quantities (intracellular plus extracellular) in words (HepG2 cells [10]; HepG2, 5000 ng/mL, compared to 10a): lower total quantities
Intracellular compound, Average (HepG2 cells [10]; HepG2, six-well plates, 5 μg/mL (10,000 ng in total), cells extracted with MeOH, mean of n = 3): 13.4894 ng
Extracellular compound, Average (HepG2 cells [10]; HepG2, six-well plates, 5 μg/mL (10,000 ng in total), culture medium extracted with MeOH, mean of n = 3): 2764.81 ng
deacylation by GdnD, nonacylated product by LC-MS (PvdQ-like acylase GdnD): nonacylated products 1 and 2 were detected
